Assay results taken from ChEMBL document CHEMBL4619703, “Synthesis, G-Quadruplex DNA binding and cytotoxic properties of naphthalimide substituted styryl dyes” (Bioorg Med Chem, 2020).
Calls of active or inactive are those of the source. The rule behind the calls is not given here.

Tests used:
[1] = system: Quadruplex DNA; test: Binding affinity to human CM22 G-quadruplex DNA at 2 uM incubated for 2 mins by UV- vis spectrophotometric analysis; type: nucleic-acid assay
[2] = system: Quadruplex DNA; test: Binding affinity to human c-Myc G-quadruplex DNA assessed as inhibition of G4/hemin peroxidase at 1 to 5 uM preincubated for 1 hr followed by hemin addition and further incubated for 1 hr and H2O2 addition and measured after 30 mins by UV spectrophotometric method; type: nucleic-acid assay
[3] = system: ssDNA; test: Binding affinity to SS26 DNA (unknown origin) assessed as fluorescence intensity at 2 uM by fluorescence spectra analysis; type: nucleic-acid assay
[4] = system: Quadruplex DNA; test: Binding affinity to human Hum24 G-quadruplex DNA assessed as fluorescence intensity at 2 uM by fluorescence spectra analysis; type: nucleic-acid assay
[5] = system: Calf thymus DNA; test: Displacement of TO from calf thymus DNA at pH 7.4 by spectrofluorophotometric FID assay; type: nucleic-acid assay, Bos taurus
[6] = biological target: Quadruplex DNA; test: Displacement of TO from human c-Myc G-quadruplex DNA at pH 7.4 by spectrofluorophotometric FID assay; type: nucleic-acid assay
[7] = biological target: Quadruplex DNA; test: Displacement of TO from human Pu 27 G-quadruplex DNA at pH 7.4 by spectrofluorophotometric FID assay; type: nucleic-acid assay
[8] = system: Quadruplex DNA; test: Binding affinity to human Hum24 G-quadruplex DNA assessed as inhibition of G4/hemin peroxidase at 1 to 5 uM preincubated for 1 hr followed by hemin addition and further incubated for 1 hr and H2O2 addition and measured after 30 mins by UV spectrophotometric method; type: nucleic-acid assay
[9] = system: MDA-MB-231; test: Antiproliferative activity against human MDA-MB-231 cells assessed as reduction in cell viability after 72 hrs by CCK8 assay; type: functional
[10] = biological target: Quadruplex DNA; test: Displacement of TO from human 22AG G-quadruplex DNA at pH 7.4 by spectrofluorophotometric based FID assay; type: nucleic-acid assay
[11] = biological target: Quadruplex DNA; test: Displacement of TO from human Hum 24 G-quadruplex DNA at pH 7.4 by spectrofluorophotometric FID assay; type: nucleic-acid assay
[12] = system: Quadruplex DNA; test: Binding affinity to human 22AG G-quadruplex DNA assessed as fluorescence intensity at 2 uM by fluorescence spectra analysis; type: nucleic-acid assay
[13] = system: Quadruplex DNA; test: Binding affinity to human Htg-21 G-quadruplex DNA assessed as fluorescence intensity at 2 uM by fluorescence spectra analysis; type: nucleic-acid assay
[14] = system: Quadruplex DNA; test: Binding affinity to human c-Myc G-quadruplex DNA assessed as fluorescence intensity at 2 uM by fluorescence spectra analysis; type: nucleic-acid assay
[15] = system: Quadruplex DNA; test: Binding affinity to human EAD G-quadruplex DNA at 2 uM incubated for 2 mins by UV- vis spectrophotometric analysis; type: nucleic-acid assay
[16] = system: Quadruplex DNA; test: Binding affinity to human Hum24 G-quadruplex DNA at 2 uM incubated for 2 mins by UV- vis spectrophotometric analysis; type: nucleic-acid assay
[17] = system: HeLa; test: Antiproliferative activity against human HeLa cells assessed as reduction in cell viability after 72 hrs by CCK8 assay; type: functional
[18] = biological target: Quadruplex DNA; test: Displacement of TO from human EAD G-quadruplex DNA at pH 7.4 by spectrofluorophotometric FID assay; type: nucleic-acid assay
[19] = system: Quadruplex DNA; test: Binding affinity of human G3T3 G-quadruplex DNA at 2 uM incubated for 2 mins by UV- vis spectrophotometric analysis; type: nucleic-acid assay
[20] = system: Quadruplex DNA; test: Binding affinity to human c-Myc G-quadruplex DNA at 2 uM incubated for 2 mins by UV- vis spectrophotometric analysis; type: nucleic-acid assay
[21] = system: HCT-116; test: Antiproliferative activity against human HCT116 cells assessed as reduction in cell viability after 72 hrs by CCK8 assay; type: functional
[22] = system: Quadruplex DNA; test: Binding affinity to human G-Quadruplex DNA assessed as aggregation at 10 uM by TEM analysis; type: nucleic-acid assay
[23] = system: Quadruplex DNA; test: Binding affinity to human Pu27 G-quadruplex DNA assessed as fluorescence intensity at 2 uM by fluorescence spectra analysis; type: nucleic-acid assay
[24] = system: Quadruplex DNA; test: Binding affinity to human Htg-21 G-quadruplex DNA at 2 uM incubated for 2 mins by UV- vis spectrophotometric analysis; type: nucleic-acid assay
[25] = biological target: Poly(dG-dC)oligonucleotide; test: Displacement of TO from Polyd(G-C)7 DNA at pH 7.4 by spectrofluorophotometric FID assay; type: nucleic-acid assay
[26] = system: Quadruplex DNA; test: Binding affinity to human EAD G-quadruplex DNA assessed as fluorescence intensity at 2 uM by fluorescence spectra analysis; type: nucleic-acid assay
[27] = system: Calf thymus DNA; test: Binding affinity to calf thymus DNA assessed as fluorescence intensity at 2 uM by fluorescence spectra analysis; type: nucleic-acid assay; conditions: Bos taurus
[28] = system: Quadruplex DNA; test: Binding affinity to G-Quadruplex DNA in human HeLa cells assessed as red fluorescence emission in nucleus at 20 uM after 30 min by DAPI staining based confocal microscopic method; type: cell-based
[29] = system: Quadruplex DNA; test: Binding affinity to human 22AG G-quadruplex DNA assessed as inhibition of G4/hemin peroxidase at 1 to 5 uM preincubated for 1 hr followed by hemin addition and further incubated for 1 hr and H2O2 addition and measured after 30 mins by UV spectrophotometric method; type: nucleic-acid assay
[30] = system: Quadruplex DNA; test: Binding affinity to human 22AG G-quadruplex DNA by spectrofluorophotometric method; type: nucleic-acid assay
[31] = system: DNA; test: Binding affinity to ds26 DNA (unknown origin) assessed as fluorescence intensity at 2 uM by fluorescence spectra analysis; type: nucleic-acid assay
[32] = system: Quadruplex DNA; test: Binding affinity to human CM22 G-quadruplex DNA by spectrofluorophotometric method; type: nucleic-acid assay
[33] = system: Quadruplex DNA; test: Binding affinity to human 22AG G-quadruplex DNA at 2 uM incubated for 2 mins by UV- vis spectrophotometric analysis; type: nucleic-acid assay
[34] = system: Quadruplex DNA; test: Binding affinity to human G3T3 G-quadruplex DNA assessed as fluorescence intensity at 2 uM by fluorescence spectra analysis; type: nucleic-acid assay
[35] = biological target: DNA; test: Displacement of TO from ds26 DNA (unknown origin) at pH 7.4 by spectrofluorophotometric FID assay; type: nucleic-acid assay
[36] = system: Quadruplex DNA; test: Binding affinity to human CM22 G-quadruplex DNA assessed as fluorescence intensity at 2 uM by fluorescence spectra analysis; type: nucleic-acid assay
[37] = biological target: Quadruplex DNA; test: Displacement of TO from human G3T3 G-quadruplex DNA at pH 7.4 by spectrofluorophotometric FID assay; type: nucleic-acid assay
[38] = biological target: Quadruplex DNA; test: Displacement of TO from human Htg 21 G-quadruplex DNA at pH 7.4 by spectrofluorophotometric FID assay; type: nucleic-acid assay
[39] = system: Quadruplex DNA; test: Binding affinity to human Pu27 G-quadruplex DNA at 2 uM incubated for 2 mins by UV- vis spectrophotometric analysis; type: nucleic-acid assay
[40] = system: HEK-293T; test: Cytotoxicity against human 293T cells assessed as reduction in cell viability after 72 hrs by CCK8 assay; type: cell-based
[41] = system: Poly(dG-dC)oligonucleotide; test: Binding affinity to poly (G-C)7 DNA assessed as fluorescence intensity at 2 uM by fluorescence spectra analysis; type: nucleic-acid assay
[42] = biological target: Quadruplex DNA; test: Displacement of TO from human CM22 G-quadruplex DNA at pH 7.4 by spectrofluorophotometric FID assay; type: nucleic-acid assay

C[n+]1c(/C=C/c2ccc(N3CCN(CCCN4C(=O)c5cccc6cccc(c56)C4=O)CC3)cc2)ccc2c3ccccc3ccc21.[I-]
Activity [1]: Active | inhibition [2]: Active | fold change (FC) [3]: 50 to 300 | fold change (FC) [4]: 700 to 1800 | DC50 [5]: 850 nM | DC50 [6]: 320 nM | DC50 [7]: 320 nM | inhibition [8]: Active | Activity [9]: 0.1432 µM | DC50 [10]: 480 nM | DC50 [11]: 500 nM | fold change (FC) [12]: 700 to 1800 | fold change (FC) [13]: 700 to 1800 | fold change (FC) [14]: 1800 | Activity [15]: Active | Activity [16]: Active | Activity [17]: 0.2438 µM | DC50 [18]: 350 nM | Activity [19]: Active | Activity [20]: Active | Activity [21]: 0.4764 µM | Activity [22]: Active | fold change (FC) [23]: 700 to 1800 | Activity [24]: Active | DC50 [25]: > 1500 nM | fold change (FC) [26]: 700 to 1800 | fold change (FC) [27]: 50 to 300 | Activity [28]: Active | inhibition [29]: Active | Ka [30]: 0.27 ×10⁶ /M | fold change (FC) [31]: 50 to 300 | Ka [32]: 290000 M⁻¹ | Activity [33]: Active | fold change (FC) [34]: 700 to 1800 | DC50 [35]: 980 nM | fold change (FC) [36]: 700 to 1800 | DC50 [37]: 410 nM | DC50 [38]: 690 nM | Activity [39]: Active | Activity [40]: 0.5372 µM | fold change (FC) [41]: 50 to 300 | DC50 [42]: 390 nM

C[n+]1ccccc1/C=C/c1ccc(N2CCN(CCCN3C(=O)c4cccc5cccc(c45)C3=O)CC2)cc1.[I-]
Activity [1]: inactive | fold change (FC) [3]: 50 to 300 | fold change (FC) [4]: 700 to 1800 | Activity [9]: 0.1014 µM | fold change (FC) [12]: 700 to 1800 | fold change (FC) [13]: 700 to 1800 | fold change (FC) [14]: 16 | Activity [15]: inactive | Activity [16]: inactive | Activity [17]: 0.1913 µM | Activity [19]: inactive | Activity [20]: inactive | Activity [21]: 0.5566 µM | fold change (FC) [23]: 700 to 1800 | Activity [24]: inactive | fold change (FC) [26]: 700 to 1800 | fold change (FC) [27]: 50 to 300 | fold change (FC) [31]: 50 to 300 | Activity [33]: inactive | fold change (FC) [34]: 700 to 1800 | fold change (FC) [36]: 700 to 1800 | Activity [39]: inactive | Activity [40]: 1.753 µM | fold change (FC) [41]: 50 to 300

O=c1[nH]cc(F)c(=O)[nH]1 [FLUOROURACIL]
Activity [9]: 0.8615 µM | Activity [17]: 0.8046 µM | Activity [21]: 1.123 µM | Activity [40]: 0.5879 µM
